# PubChem BioAssay (NCI)
#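 Cultured in 96-well plates, cells were exposed to test compound for 48 hours across five concentrations. GI50 marks 50% less growth. TGI denotes the concentration required for complete inhibition of growth.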
# Legend:
# Experiment in all cases: growth of human tumour cells (NCI), 48 h
# SW-620 colon = tested on: SW-620 colon
# SF-295 CNS = tested on: SF-295 CNS
# SK-MEL-28 melanoma = tested on: SK-MEL-28 melanoma
# SF-268 CNS = tested on: SF-268 CNS
# BT-549 breast = tested on: BT-549 breast
# SK-OV-3 ovarian = tested on: SK-OV-3 ovarian
# OVCAR-4 ovarian = tested on: OVCAR-4 ovarian
# SK-MEL-5 melanoma = tested on: SK-MEL-5 melanoma
# HOP-62 NSCLC = tested on: HOP-62 NSCLC
# UO-31 renal = tested on: UO-31 renal
# PC-3 prostate = tested on: PC-3 prostate
# M14 melanoma = tested on: M14 melanoma
# MDA-MB-435 = tested on: MDA-MB-435
# LOX IMVI melanoma = tested on: LOX IMVI melanoma
# NCI-H226 lung = tested on: NCI-H226 lung
# EKVX NSCLC = tested on: EKVX NSCLC
# K-562 leukemia = tested on: K-562 leukemia
# TK-10 renal = tested on: TK-10 renal
# A498 renal = tested on: A498 renal
# SNB-19 CNS = tested on: SNB-19 CNS
# SN12C renal = tested on: SN12C renal
# ACHN renal = tested on: ACHN renal
# KM12 colon = tested on: KM12 colon
# UACC-62 melanoma = tested on: UACC-62 melanoma
# NCI-H460 lung = tested on: NCI-H460 lung
# SF-539 CNS = tested on: SF-539 CNS
# SR leukemia = tested on: SR leukemia
# MALME-3M melanoma = tested on: MALME-3M melanoma
smiles,measurement,setting,value
CCOc1cc(/C=C/C(=O)C(C(=O)/C=C/c2ccc(OC(=O)CNc3nc4ccccc4[nH]3)c(OCC)c2)C(=O)CNc2nc3ccccc3[nH]2)ccc1OC(=O)CNc1nc2ccccc2[nH]1,GI50,SW-620 colon,1.6 µM
same,TGI,SW-620 colon,2.95 µM
same,GI50,SF-295 CNS,7.86 µM
same,TGI,SF-295 CNS,22.7 µM
same,GI50,SK-MEL-28 melanoma,1.77 µM
same,TGI,SK-MEL-28 melanoma,3.56 µM
same,GI50,SF-268 CNS,2 µM
same,TGI,SF-268 CNS,6.79 µM
same,GI50,BT-549 breast,1.45 µM
same,TGI,BT-549 breast,3.13 µM
same,GI50,SK-OV-3 ovarian,3.17 µM
same,TGI,SK-OV-3 ovarian,11.9 µM
same,GI50,OVCAR-4 ovarian,3.39 µM
same,TGI,OVCAR-4 ovarian,22.7 µM
same,GI50,SK-MEL-5 melanoma,1.6 µM
same,TGI,SK-MEL-5 melanoma,3.02 µM
same,GI50,HOP-62 NSCLC,4.23 µM
same,TGI,HOP-62 NSCLC,> 100 µM
same,GI50,UO-31 renal,3.98 µM
same,TGI,UO-31 renal,> 100 µM
same,GI50,PC-3 prostate,2.12 µM
same,TGI,PC-3 prostate,6.23 µM
same,GI50,M14 melanoma,2.14 µM
same,TGI,M14 melanoma,6.76 µM
same,GI50,MDA-MB-435,2.07 µM
same,TGI,MDA-MB-435,6.92 µM
same,GI50,LOX IMVI melanoma,1.66 µM
same,TGI,LOX IMVI melanoma,3.02 µM
same,GI50,NCI-H226 lung,2.07 µM
same,TGI,NCI-H226 lung,5.67 µM
same,GI50,EKVX NSCLC,1.99 µM
same,TGI,EKVX NSCLC,5.37 µM
same,GI50,K-562 leukemia,1.44 µM
same,TGI,K-562 leukemia,2.75 µM
same,GI50,TK-10 renal,3.24 µM
same,TGI,TK-10 renal,14.2 µM
same,GI50,A498 renal,1.68 µM
same,TGI,A498 renal,3.87 µM
same,GI50,SNB-19 CNS,2.96 µM
same,TGI,SNB-19 CNS,11.7 µM
same,GI50,SN12C renal,2.21 µM
same,TGI,SN12C renal,5.61 µM
same,GI50,ACHN renal,2.31 µM
same,TGI,ACHN renal,6.68 µM
same,GI50,KM12 colon,1.62 µM
same,TGI,KM12 colon,3.26 µM
same,GI50,UACC-62 melanoma,1.9 µM
same,TGI,UACC-62 melanoma,3.98 µM
same,GI50,NCI-H460 lung,1.92 µM
same,TGI,NCI-H460 lung,4.44 µM
same,GI50,SF-539 CNS,1.61 µM
same,TGI,SF-539 CNS,3.1 µM
same,GI50,SR leukemia,0.788 µM
same,TGI,SR leukemia,2.53 µM
same,GI50,MALME-3M melanoma,1.75 µM
